By chromatographic logP is commonly meant a lipophilicity value derived from retention on a column.

Results on two molecules are retold here after US20190218188A1, “NOVEL 5-SUBSTITUTED IMIDAZOLE DERIVATIVES” (Bayer CropScience Aktiengesellschaft, priority 2016, published 2019).

This data set is described as follows: Log P by HPLC on reversed phase columns (EEC directive 79/831 Annex V.A8). Particulars: reversed phase HPLC column; method [a]: LC-UV, acidic range, 0.1% formic acid in water and acetonitrile as eluent (linear gradient 10% to 95% acetonitrile). The class given is physicochemical. The protocol:
Measurement of Log P values was performed according to EEC directive 79/831 Annex V.A8 by HPLC (High Performance Liquid Chromatography) on reversed phase columns with the following methods: • ^[a] Log P value is determined by measurement of LC-UV, in an acidic range, with 0.1% formic acid in water and acetonitrile as eluent (linear gradient from 10% acetonitrile to 95% acetonitrile). • ^[b] Log P value is determined by measurement of LC-UV, in a neutral range, with 0.001 molar ammonium acetate solution in water and acetonitrile as eluent (linear gradient from 10% acetonitrile to 95% acetonitrile). • ^[c] Log P value is determined by measurement of LC-UV, in an acidic range, with 0.1% phosphoric acid and acetonitrile as eluent (linear gradient from 10% acetonitrile to 95% acetonitrile). If more than one Log P value is available within the same method, all the values are given and separated by “+”. Calibration was done with straight-chain alkan2-ones (with 3 to 16 carbon atoms) with known Log P values (measurement of Log P values using retention times with linear interpolation between successive alkanones).

`N#Cc1cncn1CC(F)(Cc1cccc(F)c1F)C1(Cl)CC1` (centres unmarked) [Example I-01, 1-[2-(1-chlorocyclopropyl)-3-(2,3-difluorophenyl)-2-fluorpropyl]-1H-imidazole-5-carbonitrile] came in with a chromatographic logP of 2.98. To `N#Cc1cncn1CC(Cl)(Cc1cccc(F)c1F)C1(Cl)CC1` (centres unmarked) [Example I-02, 1-[2-chloro-2-(1-chlorocyclopropyl)-3-(2,3-difluorophenyl)propyl]-1H-imidazole-5-carbonitrile] belongs 3.25.
